Data published in publication PMC9312958, “A Novel and Selective Dopamine Transporter Inhibitor, (S)-MK-26, Promotes Hippocampal Synaptic Plasticity and Restores Effort-Related Motivational Dysfunctions” (Biomolecules, 2022).

Assays:
hDAT = biological target: T1, hDAT (Homo sapiens, UniProt Q01959); assay: Uptake inhibition assay in HEK293 cells expressing hDAT; format: cell-based
T1 construct: expressed in transfected cells
Description: (§1) Human embryonic kidney 293 cells (HEK293 cells) were cultivated in Dulbecco’s Modified Eagle Medium (DMEM), containing 10% heat-inactivated fetal calf serum (FCS; 100 mL/L), streptomycin (100 μg/100 mL) and penicillin ([…]). Geneticin (50 μg/mL) was added to select cells stably expressing the human isoforms of dopamine, norepinephrine and serotonin transporter (hDAT, hNET, and hSERT, respectively) as described earlier. Cell lines were maintained in culture in humidified atmosphere (37 °C, 5% CO2), and passaged when reached 80–90% confluency. Cells expressing the desired transporter were seeded the day before the experiment (40,000 cells per well) or two days before the experiments (20,000 cells per well) onto poly-D-lysine (PDL)-coated 96-well plates.
Uptake inhibition experiments were carried out as reported previously. Ninety-six-well plates containing hDAT-, hNET- or hSERT-expressing cells were washed with Krebs-HEPES buffer (KHB; 25 mM HEPES, 120 mM NaCl, 5 mM KCl, 1.2 mM CaCl2, and 1.2 mM MgSO4 and 5 mM D-glucose, pH = 7.3). Cells were then preincubated with increasing concentrations of the compound diluted in KHB for 6 min. Following the pre-incubation of the cells with the compound, the tritiated substrate (hDAT: 0.15 μM [^3H]DA; hNET: 0.05 μM [^3H]MPP^+; hSERT: 0.1 μM [^3H]5-HT) was added to the wells. The uptake was terminated by removal of tritiated substrate and by washing the cells with ice-cold KHB after 1 min (for hDAT and hSERT) or 3 min (for hNET). Thereafter, 200 μL of Ultima Gold^TM XR scintillation cocktail (PerkinElmer, MA, USA) was added, the plates were shaken and the radioactivity accumulated into the cells determined in a Wal-lac 1450 MicroBeta TriLux Liquid Scintillation Counter & Lumi (GMI, Ramsey, MN, USA). Non- specific tritiated substrate uptake was measured in the presence of 100 μM cocaine (for hDAT and hNET) or 10 μM paroxetine (for hSERT), and subtracted from the data. Uptake in the presence of test drugs was normalized to the uptake in the presence of the vehicle.

hSERT = biological target: T2, hSERT (Homo sapiens, UniProt P31645); assay: Uptake inhibition assay in HEK293 cells expressing hSERT; format: cell-based
T2 construct: expressed in transfected cells
T2 sequence (P31645 whole entry): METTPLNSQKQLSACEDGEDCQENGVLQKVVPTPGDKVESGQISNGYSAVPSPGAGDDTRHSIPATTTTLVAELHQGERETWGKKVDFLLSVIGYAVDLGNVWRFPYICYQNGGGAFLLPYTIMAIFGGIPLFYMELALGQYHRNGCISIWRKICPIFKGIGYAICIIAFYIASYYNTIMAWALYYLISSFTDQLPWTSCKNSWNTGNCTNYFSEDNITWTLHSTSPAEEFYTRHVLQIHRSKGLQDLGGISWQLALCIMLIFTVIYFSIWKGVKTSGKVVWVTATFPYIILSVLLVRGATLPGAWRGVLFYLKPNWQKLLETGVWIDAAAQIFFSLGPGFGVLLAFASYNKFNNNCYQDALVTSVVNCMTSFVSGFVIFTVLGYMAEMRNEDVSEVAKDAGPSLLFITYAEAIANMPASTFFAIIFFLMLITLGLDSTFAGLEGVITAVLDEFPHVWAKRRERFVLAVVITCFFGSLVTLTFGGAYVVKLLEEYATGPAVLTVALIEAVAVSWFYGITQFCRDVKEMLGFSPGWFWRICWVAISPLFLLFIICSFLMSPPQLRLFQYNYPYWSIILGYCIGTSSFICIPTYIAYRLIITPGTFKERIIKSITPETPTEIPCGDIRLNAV
Description: as §1
Uptake inhibition experiments were carried out as reported previously. […] Thereafter, 200 μL of Ultima Gold^TM XR scintillation cocktail (PerkinElmer, MA, USA) was added, the plates were shaken and the radioactivity accumulated into the cells determined in a Wal-lac 1450 MicroBeta TriLux Liquid Scintillation Counter & Lumi (GMI, Ramsey, MN, USA). Non- specific tritiated substrate uptake was measured in the presence of 100 μM cocaine (for hDAT and hNET) or 10 μM paroxetine (for hSERT), and subtracted from the data. […]

[1] = test system: adult male Sprague Dawley rats; assay: PROG/chow feeding choice task; format: in vivo, rat
Description: Pharmacological agents: (S)-MK-26 was obtained from the Lubec Laboratory (University of Vienna, Austria) and dissolved in dimethyl sulfoxide (DMSO) (10%), Tween 80 (15%), and 0.9% saline (75%). The DMSO/Tween 80/saline mixture was administered as the vehicle control. The dose range was selected as 3.75–45.0 mg/kg based on its DAT affinity and pilot studies. It was administered 30 min before testing. TBZ (9,10-dimethoxy3-(2-methylpropyl)-1,3,4,6,7, 11b hexahydrobenzo[a]quinolizin2-one) was obtained from Tocris Bioscience (Ellisville, MO) and was dissolved in DMSO (20%) and 0.9% saline (80%) and was titrated with 1.0 N HCl until the drug was dissolved at a pH of 4.0–4.5. The DMSO/saline solution with equal amounts of HCl was administered as the vehicle control. The selected dose was 1.0mg/kg based on the previous research from our laboratory. It was administered 120 min prior to testing. […]
Behavioral sessions were conducted in operant chambers (28 × 23 × 23 cm^3; Med Associates, Fairfax, VT) with 30 min sessions 5 days/week. […] The number of lever pressing was recorded and the amount of consumed chow was calculated by weighing the remaining food, including spillage. […]

T1 sequence (Q01959 whole entry): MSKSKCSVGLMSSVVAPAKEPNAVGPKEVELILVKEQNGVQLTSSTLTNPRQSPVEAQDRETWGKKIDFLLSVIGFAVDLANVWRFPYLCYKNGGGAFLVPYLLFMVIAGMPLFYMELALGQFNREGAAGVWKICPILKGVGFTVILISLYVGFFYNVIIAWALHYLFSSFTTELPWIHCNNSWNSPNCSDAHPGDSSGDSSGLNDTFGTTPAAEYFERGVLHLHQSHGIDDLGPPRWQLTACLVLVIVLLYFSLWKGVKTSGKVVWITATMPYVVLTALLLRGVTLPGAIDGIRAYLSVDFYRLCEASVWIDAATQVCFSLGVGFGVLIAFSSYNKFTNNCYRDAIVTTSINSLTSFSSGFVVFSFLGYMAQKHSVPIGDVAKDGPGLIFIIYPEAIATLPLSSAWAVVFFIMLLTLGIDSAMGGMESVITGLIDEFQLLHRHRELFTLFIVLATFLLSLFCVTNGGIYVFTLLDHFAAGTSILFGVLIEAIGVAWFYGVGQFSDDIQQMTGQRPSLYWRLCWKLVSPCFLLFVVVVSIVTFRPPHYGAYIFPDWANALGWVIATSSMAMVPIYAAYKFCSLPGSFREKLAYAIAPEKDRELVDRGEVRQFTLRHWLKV

[O-][S@@+](Cc1cncs1)C(c1cccc(Cl)c1)c1cccc(Cl)c1 [(S)-MK-26, (S)-5-(((B(3-chlorophenyl)methyl)sulphinyl)methyl)thiazole]
IC50 (hDAT): 0.56 µM | fold lower hDAT IC50 compared to (R)-MK-26 (hDAT; uptake inhibition, HEK293): approximately 65 fold | fold lower hDAT IC50 compared to (R)-Modafinil (hDAT; uptake inhibition, HEK293): 10 fold | IC50 (hSERT): > 1000 µM | effect on PROG lever presses ([1]; 45.0 mg/kg i.p. alone vs vehicle, p = 0.011): statistically significant difference between the vehicle and the highest dose | effect on chow intake ([1]; 30.0 and 45.0 mg/kg i.p. alone vs vehicle): decreased chow intake
